{"source": "patent US20250381204A1", "about": "“A CANNABINOID MIXTURE WITH TERPENES FOR THE TREATMENT OF ANXIETY” (priority 2022, published 2025)", "key": {"Fish": {"tested_on": "Fish", "assay": "Tank diving experiments (Example 8)", "type": "in vivo", "protocol": "Fish were exposed to drug, either pure CBD, CBD containing terpenes, or CBD plus CBG, in a litre of water for 30 min prior to being transferred to a novel tank containing fresh fish water in the absence of drug using a net and their behaviour recorded over a 6 min period using a camera mounted to one side. The vertical position of the fish in the tank can reliably be used as a proxy for an individual's anxiety. For example, the less time a fish spends on the bottom of the tank the less anxious. The response variables were number of visits to the top half of the tank, distance from the bottom of the tank, and proportion of time spent in the bottom third of the tank. Time spent on the bottom, distance travelled and number of top half visits determining using Ethovision software (Noldus). Water was changed, tanks and fish nets cleaned between each fish.\nThe anxiolytic concentration of CBD was first assessed by treating the fish with 0-15 mg/L CBD.\nThe ratio of CBD minus terpenes:CBD plus terpenes tested was 2:0, 1.5:0.5, 1:1, 0.5:1.5 and 0:2."}, "5 dpf zebrafish larvae": {"tested_on": "5 dpf zebrafish larvae", "type": "in vivo, Zebrafish (Danio rerio)", "protocol": "Fish were bred and reared in the aquarium facility at Queen Mary University of London, licenced by the UK Home Office. Zebrafish (Danio rerio) adults from the Tuebingen wild type (TUWT) line were kept in glass breeding tanks in fish water that contain sodium bicarbonate (0.9 mM), calcium sulphate (0.05 mM) and marine salts (Sigma, Poole, UK; 0.018 g/l). Fish were maintained on a constant 14 h light: 10 h dark cycle at 28° C. They were fed 2 times a day with Zmsystems® ZM-000 high protein food particle (Tecniplast® UK. London) from 5 dpf-10 dpf, ZM-100 and paramecium from 11 dpf-14 dpf, and, ZM-200 and brineshrimp from 14 dpf-30 dpf. At one month of age, animals were transferred into the aquaria where they were fed Zmsystems® flake food and brineshrimp.\nAfter incubation the 48-well plate was placed in a DanioVision Observation Chamber (Noldus) and the larvae were subjected to a forced dark/light transition assay while still in the compound solution. The assay consisted of a 10 min baseline period in the dark, followed by a 10 min light challenge, followed by a 15 min dark period. DanioVision Observation Chamber controlled the lighting and recorded the assay with an infrared camera (resolution, 30 frames per second (fps)). Footage obtained was processed by EthoVision XT NUMBER (Noldus). Mean distance moved was measured with 10 second intervals.\nAll statistical analyses were carried out in R version 3.2.2 (R core developer team reference). Data distributions and model fit were initially assessed visually. AIC values were used in model selection. Due to difference in variance between groups we fitted a linear mixed model (LMM) in the gls package (ref).\nIt was first assessed whether the different compounds and concentrations were associated with differences in locomotion after 30 min exposure. We subsetted the last min in the baseline and fitted an LME with mean distance moved as the response variable, compound as the fixed effect, and individual as the random effect, with a variance structure for compound.\nThe light challenge and dark phase were subsetted to assess if different compounds and concentrations were associated with different patterns of movement. In the light challenge the increase of movement over time was considered recovery. In the dark phase decrease of movement was considered recovery. We fitted an LME with mean distance moved (in 10 second time bins) as the response variable, the interaction between time and concentration as a fixed effect, individual as the random effect and introduced a variant structure to account for the heterogeneity in variance between drugs."}, "larvae": {"tested_on": "larvae", "assay": "Forced light/dark transition assay screening hemp extracts, diazepam and caffeine (Example 5)", "type": "in vivo, zebrafish", "conditions": "for response when the light is switched on (from trace): whole duration of the assay", "protocol": "Our forced light/dark transition protocol was as follows. First, there was 10 minutes of total darkness (which we refer to as the baseline period; compounds were introduced at the beginning of the baseline period, and 10 minutes were allotted to allow for drug absorption and acclimation). Next, there was a period of five minutes of light exposure followed by five minutes of dark exposure, repeated three times. Finally, there was an additional five minutes of dark exposure.\nA variety of statistical techniques were used to address our hypotheses about the potential anxiolytic and anxiogenic effects of four compounds. In outline: • 1) Overall models were carried out using linear mixed-effect models • 2) Deliberate pairwise comparisons between controls and dosages of interest were carried out using appropriate two-sample comparison tests\nAll statistical analyses were carried out in R version 3.2.2 (R core developer team). Overall models were linear mixed-effects models (LMMs), and were fitted using the Ime4 package (Bates, Machler, Bolker, & Walker, 2015). Data were transformed as indicated to fit the assumptions of LMMs. Posthoc tests were performed using the multcomp package in R. Data distributions were initially assessed visually and model diagnostics were subsequently checked to assure appropriate fits.\nComparisons between patterns of activity during the light phases (i.e. rate of recovery during light phases, which indicates a possible anxiolytic or anxiogenic effect) were performed by analysing the slope of the linear regression function of individual mean distance vs time during light phases.\nFor pairwise comparisons on specific concentrations, nonparametric tests are used as indicated on non-normally distributed data."}, "5 dpf larvae": {"tested_on": "5 dpf larvae", "assay": "Forced light/dark transition test, 10 min dark-(5 min light-5 min dark)*3-5 min dark (Example 4)", "type": "in vivo, zebrafish", "protocol": "• All the tests were done with 5 dpf larvae unless stated otherwise. • A forced light/dark transition test was used. (10 min dark-(5 min light-5 min dark)*3-5 min dark) • The dose response curve was made as follows; • The locomotor activity of the larvae at the last min of acclimation (min 9-10 in the assay), was taken • The mean for each larvae over this period of time was calculated • Then the mean of each condition was calculated • The means plotted are relative to the control, control was set at 1"}, "[1]": {"conditions": "2 mg/L CBD in combination with 0-5 mg/L CBG"}, "[2]": {"conditions": "1% ethanol, 80 mg/L caffeine, 250 μg/L fluoxetine, 100 mM NaCl"}}, "note": "Where two headings read alike, the source gives them in different places.", "data": [{"molecule": "C=C(C)[C@@H]1CCC(C)=C[C@H]1c1c(O)cc(CCCCC)cc1O", "note": "[CBD, Cannabidiol]", "values": [{"measurement": "anxiolytic effect in tank diving (top half visits, distance from bottom, time in bottom third)", "setting": "Fish; 0-15 mg/L CBD, 30 min exposure, 6 min recording", "result": "anxiolytic effect"}]}, {"molecule": "CCCCCc1cc(O)c(C/C=C(\\C)CCC=C(C)C)c(O)c1", "note": "[CBG, Cannabigerol]", "values": [{"measurement": "anxiolytic / anxiogenic effect of CBG in the mixture", "setting": "Fish; [1]", "result": "displays no anxiolytic effect, but may potentially have an undesirable anxiogenic effect"}, {"measurement": "distance from the bottom of the tank", "setting": "Fish; [1]", "result": "no significant change in the distance from the bottom of the tank with increasing CBG concentration"}, {"measurement": "frequency of visits to the top half of the tank", "setting": "Fish; [1]", "result": "decreased with increasing concentration of CBG"}, {"measurement": "proportion of time spent in the bottom third of the tank", "setting": "Fish; [1]", "result": "spend a greater proportion of time in the bottom third of the tank"}]}, {"molecule": "CNCCC(Oc1ccc(C(F)(F)F)cc1)c1ccccc1", "note": "(centres unmarked) [Fluoxetine, fluoxetine]", "values": [{"measurement": "basal locomotion (last minute of baseline) vs DMSO", "setting": "5 dpf zebrafish larvae; [2]", "result": "move significantly less than DMSO"}, {"measurement": "movement in the beginning of the dark period / in the dark phase vs DMSO", "setting": "5 dpf zebrafish larvae; [2]", "result": "move less overall in the dark phase"}, {"measurement": "rate of recovery in the dark phase (decrease of movement over time) vs DMSO", "setting": "5 dpf zebrafish larvae; [2]", "result": "recover less over time"}, {"measurement": "rate of recovery in the light challenge (increase of movement over time) vs DMSO", "setting": "5 dpf zebrafish larvae; [2]", "result": "recover less over time"}]}, {"molecule": "[Cl-].[Na+]", "note": "[NaCl]", "values": [{"measurement": "basal locomotion (last minute of baseline) vs DMSO", "setting": "5 dpf zebrafish larvae; zebrafish, in vivo", "result": "no difference in locomotion"}, {"measurement": "freezing in the light challenge vs DMSO", "setting": "5 dpf zebrafish larvae; zebrafish, in vivo", "result": "froze less"}, {"measurement": "movement in the beginning of the dark period / in the dark phase vs DMSO", "setting": "5 dpf zebrafish larvae; zebrafish, in vivo", "result": "no difference in movement in the beginning of the dark period"}, {"measurement": "rate of recovery in the dark phase (decrease of movement over time) vs DMSO", "setting": "5 dpf zebrafish larvae; zebrafish, in vivo", "result": "recovers slower than DMSO"}, {"measurement": "rate of recovery in the light challenge (increase of movement over time) vs DMSO", "setting": "5 dpf zebrafish larvae; zebrafish, in vivo", "result": "did not recover differently from DMSO"}]}, {"molecule": "Cn1c(=O)c2c(ncn2C)n(C)c1=O", "note": "[caffeine]", "values": [{"measurement": "dosage with significantly lower locomotion than control larvae (Tukey posthoc)", "setting": "larvae; after ~10 minutes of exposure", "result": 80, "unit": "mg/L"}, {"measurement": "dosage as predictor of mean distance moved after ~10 minutes of exposure (LMM)", "setting": "larvae; last minute of baseline, dark", "result": "Dosage was a significant predictor of mean distance moved after 10 minutes of exposure"}, {"measurement": "dosages significantly different from the control during light phases (Tukey posthoc pairwise comparison)", "setting": "larvae; light phases", "result": "≥ 40", "unit": "mg/L"}, {"measurement": "time×dosage and dosage×light phase number as predictors of mean distance moved during light phases (LMM)", "setting": "larvae; light phases", "result": "Both fixed effects were significant predictors of mean distance moved"}, {"measurement": "response when the light is switched on (from trace)", "setting": "larvae", "result": "much the same for all doses"}, {"measurement": "basal locomotion (last minute of baseline) vs DMSO", "setting": "5 dpf zebrafish larvae; [2]", "result": "move significantly less than DMSO"}, {"measurement": "freezing in the light challenge vs DMSO", "setting": "5 dpf zebrafish larvae; [2]", "result": "froze less in the beginning of the light challenge"}, {"measurement": "movement in the beginning of the dark period / in the dark phase vs DMSO", "setting": "5 dpf zebrafish larvae; [2]", "result": "move less overall in the dark phase"}, {"measurement": "rate of recovery in the dark phase (decrease of movement over time) vs DMSO", "setting": "5 dpf zebrafish larvae; [2]", "result": "recover less over time"}, {"measurement": "rate of recovery in the light challenge (increase of movement over time) vs DMSO", "setting": "5 dpf zebrafish larvae; [2]", "result": "negative impact of locomotion over time"}]}, {"molecule": "CN1C(=O)CN=C(c2ccccc2)c2cc(Cl)ccc21", "note": "[diazepam]", "values": [{"measurement": "effect on locomotor", "setting": "5 dpf larvae; 5 dpf larvae, dose response", "result": "impairment diazepam has on locomotor"}, {"measurement": "rate of recovery (slope) during light phases vs DMSO control", "setting": "larvae; 0.25 μM", "result": "significantly higher slope, or rate of recovery"}, {"measurement": "rate of recovery (slope of linear regression) during the first light phase (Kruskal-Wallis)", "setting": "larvae; Experiment 1 (diazepam), all dosages", "result": "faster rate of recovery"}, {"measurement": "mean distance moved over time in the light challenge vs control", "setting": "larvae; Experiment 2 (diazepam), 2.5 μM, minute 10 to 20", "result": "increases movement over time faster than the control in the light challenge"}, {"measurement": "mean distance moved over time in the dark period vs control", "setting": "larvae; Experiment 2 (diazepam), 2.5 μM, minute 20 to 30", "result": "decreases movement over time faster than the control in the dark period"}, {"measurement": "mean distance moved in the baseline period (LMM)", "setting": "larvae; Experiment 2 (diazepam), minute 9 to 10", "result": "no significant difference found in mean distance moved in the baseline period"}, {"measurement": "dosages with significantly lower distance moved than the control fish (Tukey post hoc)", "setting": "larvae; after ~10 minutes of exposure, Experiment 1 (diazepam)", "result": "≥ 0.25", "unit": "µM"}, {"measurement": "time×dosage and dosage×light phase number as predictors of mean distance moved during light phases (LMM)", "setting": "larvae; light phases", "result": "Both fixed effects were significant predictors of mean distance moved"}, {"measurement": "response when the light is switched on (from trace)", "setting": "larvae", "result": "stops the fish moving to the bottom of the tank"}, {"measurement": "anxiolytic effect (overall conclusion)", "setting": "larvae; zebrafish, in vivo", "result": "anxiolytic effect"}]}, {"molecule": "CCO", "note": "[ethanol]", "values": [{"measurement": "behaviour in the acclimation period", "setting": "5 dpf larvae; 0.25% ethanol", "result": "start moving erratically"}, {"measurement": "behaviour when turning on the light", "setting": "5 dpf larvae; 0.5% ethanol, most groups freeze", "result": "starts moving more than before"}, {"measurement": "rate of recovery in the dark phase (decrease of movement over time) vs DMSO", "setting": "5 dpf zebrafish larvae; [2]", "result": "recovers faster"}, {"measurement": "rate of recovery in the light challenge (increase of movement over time) vs DMSO", "setting": "5 dpf zebrafish larvae; [2]", "result": "negative impact of locomotion over time"}, {"measurement": "basal locomotion (last minute of baseline) vs DMSO", "setting": "5 dpf zebrafish larvae; zebrafish, in vivo", "result": "moved significantly more than DMSO"}, {"measurement": "freezing in the light challenge vs DMSO", "setting": "5 dpf zebrafish larvae; zebrafish, in vivo", "result": "froze less in the beginning of the light challenge"}, {"measurement": "movement in the beginning of the dark period / in the dark phase vs DMSO", "setting": "5 dpf zebrafish larvae; zebrafish, in vivo", "result": "moves more at the beginning of the dark period compared to DMSO"}]}]}
